Measurements taken from patent publication US9403839B2, “Pyran-spirocyclic piperidine amides as modulators of ion channels” (Vertex Pharmaceuticals Incorporated, priority 2012, dated 2016).
pIC50: −log10 of the molar value.

Each molecule was assayed against human NaV subtype, like NaV 1.7 (Homo sapiens, UniProt Q15858) (assay: E-VIPR optical membrane potential assay with electrical stimulation). Conditions: one or more sodium channels; assay and NaV subtype not specified for Table 3; read-out: IC50 Binned Activity Data.
Format: cell-based
Source text: Assays for Detecting and Measuring NaV Inhibition Properties of Compound E-VIPR Optical Membrane Potential Assay Method with Electrical Stimulation
Sodium channels are voltage-dependent proteins that can be activated by inducing membrane voltage changes by applying electric fields. The electrical stimulation instrument and methods of use are described in Ion Channel Assay Methods PCT/US01/21652, herein incorporated by reference and are referred to as E-VIPR. The instrument comprises a microtiter plate handler, an optical system for exciting the coumarin dye while simultaneously recording the coumarin and oxonol emissions, a waveform generator, a current- or voltage-controlled amplifier, and a device for inserting electrodes in well. Under integrated computer control, this instrument passes user-programmed electrical stimulus protocols to cells within the wells of the microtiter plate.
24 hours before the assay on E-VIPR, HEK cells expressing human NaV subtype, like NaV 1.7, are seeded in 384-well poly-lysine coated plates at 15,000-20,000 cells per well. Other subtypes are performed in an analogous mode in a cell line expressing the NaV of interest. HEK cells are grown in media (exact composition is specific to each cell type and NaV subtype) supplemented with 10% FBS (Fetal Bovine Serum, qualified; GibcoBRL #16140-071) and 1% Pen-Strep (Penicillin-Streptomycin; GibcoBRL #15140-122). Cells are grown in vented cap flasks, in 90% humidity and 10% CO2, to 100% confluence. They are usually split by trypsinization 1:10 or 1:20, depending on scheduling needs, and grown for 2-3 days before the next split.
100 mg/mL Pluronic F-127 (Sigma #P2443), in dry DMSO
Compound Plates: 384-well round bottom plate, e.g. Corning 384-well Polypropylene Round Bottom #3656
Cell Plates: 384-well tissue culture treated plate, e.g. Greiner #781091-1B
Bath1 buffer. Glucose 10 mM (1.8 g/L), Magnesium Chloride (Anhydrous), 1 mM (0.095 g/L), Calcium Chloride, 2 mM (0.222 g/L), HEPES 10 mM (2.38 g/L), Potassium Chloride, 4.5 mM (0.335 g/L), Sodium Chloride 160 mM (9.35 g/L).
Hexyl Dye Solution: Bath1 Buffer+0.5% β-cyclodextrin (make this prior to use, Sigma #C4767), 8 μM CC2-DMPE+2.5 μM DiSBAC6(3). To make the solution Add volume of 10% Pluronic F127 stock equal to volumes of CC2-DMPE+DiSBAC6(3). The order of preparation is first mix Pluronic and CC2-DMPE, then add DiSBAC6(3) while vortexing, then add Bath1+β-Cyclodextrin.
1) Pre-spot compounds (in neat DMSO) into compound plates. Vehicle control (neat DMSO), the positive control (20 mM DMSO stock tetracaine, 125 μM final in assay) and test compounds are added to each well at 160× desired final concentration in neat DMSO. Final compound plate volume will be 80 μL (80-fold intermediate dilution from 1 μL DMSO spot; 160-fold final dilution after transfer to cell plate). Final DMSO concentration for all wells in assay is 0.625%.
2) Prepare Hexyl Dye Solution.
3) Prepare cell plates. On the day of the assay, medium is aspirated and cells are washed three times with 100 μL of Bath1 Solution, maintaining 25 μL residual volume in each well.
4) Dispense 25 μL per well of Hexyl Dye Solution into cell plates. Incubate for 20-35 minutes at room temp or ambient conditions.
5) Dispense 80 μL per well of Bath1 into compound plates. Acid Yellow-17 (1 mM) is added and Potassium Chloride can be altered from 4.5 to 20 mM depending on the NaV subtype and assay sensitivity.
6) Wash cell plates three times with 100 μL per well of Bath1, leaving 25 of residual volume. Then transfer 25 uL per well from Compound Plates to Cell Plates. Incubate for 20-35 minutes at room temp/ambient condition
7) Read Plate on E-VIPR. Use the current-controlled amplifier to deliver stimulation wave pulses for typically 9 seconds and a scan rate of 400 Hz. A pre-stimulus recording is performed for 0.5 seconds to obtain the un-stimulated intensities baseline. […]

human NaV subtype, like NaV 1.7, sequence (Q15858 whole entry): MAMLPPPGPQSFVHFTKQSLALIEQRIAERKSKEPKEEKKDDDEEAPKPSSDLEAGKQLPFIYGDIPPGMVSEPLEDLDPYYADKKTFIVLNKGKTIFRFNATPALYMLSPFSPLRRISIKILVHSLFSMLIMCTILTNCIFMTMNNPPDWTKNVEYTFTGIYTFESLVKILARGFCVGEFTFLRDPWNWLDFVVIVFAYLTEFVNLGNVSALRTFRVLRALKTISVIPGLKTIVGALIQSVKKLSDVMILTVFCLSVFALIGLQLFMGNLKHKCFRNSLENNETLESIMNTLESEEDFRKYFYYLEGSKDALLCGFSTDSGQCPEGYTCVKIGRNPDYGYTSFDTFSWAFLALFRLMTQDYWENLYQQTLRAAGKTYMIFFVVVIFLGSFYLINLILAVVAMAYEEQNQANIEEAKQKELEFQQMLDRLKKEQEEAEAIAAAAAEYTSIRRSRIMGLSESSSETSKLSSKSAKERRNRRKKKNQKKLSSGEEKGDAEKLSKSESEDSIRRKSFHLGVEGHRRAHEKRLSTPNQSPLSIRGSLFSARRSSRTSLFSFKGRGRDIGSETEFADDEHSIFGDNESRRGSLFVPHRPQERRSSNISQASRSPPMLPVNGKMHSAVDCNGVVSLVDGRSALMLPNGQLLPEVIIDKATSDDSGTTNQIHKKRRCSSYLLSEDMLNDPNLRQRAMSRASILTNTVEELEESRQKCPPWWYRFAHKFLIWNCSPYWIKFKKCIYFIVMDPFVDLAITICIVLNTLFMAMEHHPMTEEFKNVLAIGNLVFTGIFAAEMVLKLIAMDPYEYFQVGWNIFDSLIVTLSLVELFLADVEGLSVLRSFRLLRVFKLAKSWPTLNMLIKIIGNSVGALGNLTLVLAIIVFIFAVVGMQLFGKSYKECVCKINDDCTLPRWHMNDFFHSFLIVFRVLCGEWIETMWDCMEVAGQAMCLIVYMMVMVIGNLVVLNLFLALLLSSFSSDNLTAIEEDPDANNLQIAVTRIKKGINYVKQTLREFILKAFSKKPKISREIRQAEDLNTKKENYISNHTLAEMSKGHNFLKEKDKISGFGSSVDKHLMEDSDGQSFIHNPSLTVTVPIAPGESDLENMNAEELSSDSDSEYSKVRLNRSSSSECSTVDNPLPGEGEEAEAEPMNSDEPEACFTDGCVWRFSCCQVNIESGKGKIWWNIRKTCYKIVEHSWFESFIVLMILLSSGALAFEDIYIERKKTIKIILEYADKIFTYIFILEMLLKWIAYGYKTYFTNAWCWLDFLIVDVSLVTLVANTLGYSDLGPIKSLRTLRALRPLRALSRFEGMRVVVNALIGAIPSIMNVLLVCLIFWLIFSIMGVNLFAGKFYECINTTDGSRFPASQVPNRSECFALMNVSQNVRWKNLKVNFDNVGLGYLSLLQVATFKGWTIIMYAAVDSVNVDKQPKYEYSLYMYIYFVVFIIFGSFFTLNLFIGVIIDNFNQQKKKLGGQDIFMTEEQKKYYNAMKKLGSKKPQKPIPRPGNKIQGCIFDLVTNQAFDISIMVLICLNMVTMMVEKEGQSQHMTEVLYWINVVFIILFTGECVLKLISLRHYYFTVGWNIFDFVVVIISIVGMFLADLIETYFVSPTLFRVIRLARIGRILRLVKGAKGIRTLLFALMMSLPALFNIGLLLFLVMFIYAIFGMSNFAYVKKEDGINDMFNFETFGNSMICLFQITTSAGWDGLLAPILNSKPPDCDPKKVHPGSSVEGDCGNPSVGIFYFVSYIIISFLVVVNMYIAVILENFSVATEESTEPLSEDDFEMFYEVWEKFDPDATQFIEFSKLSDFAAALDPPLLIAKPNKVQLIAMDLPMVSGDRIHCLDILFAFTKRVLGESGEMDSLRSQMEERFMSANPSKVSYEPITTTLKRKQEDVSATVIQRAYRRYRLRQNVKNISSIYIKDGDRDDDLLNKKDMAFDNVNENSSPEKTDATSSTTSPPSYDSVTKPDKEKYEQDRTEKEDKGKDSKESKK

| Compound | pIC50 |
| --- | --- |
| CCOC1CC(c2ccccc2)OC2(CCN(C(=O)c3cccc(C)n3)CC2)C1 (stereo not drawn) [Compound 122] | < 5.30 |
| CCOc1ncc(Cl)cc1C(=O)N1CCC2(CC1)CC(OCC)CC(c1ccccc1)O2 (stereo not drawn) [Compound 68] | 5.30 to 5.70 |
| CCCOC1CC(c2cncs2)OC2(CCN(C(=O)c3ccc(OC(C)C)c(C)c3)CC2)C1 (stereo not drawn) [Compound 8] | ≥ 5.70 |
| CCOC1CC(c2ccccc2)OC2(CCN(C(=O)c3ccc(OC(F)F)c(OC)c3)CC2)C1 (stereo not drawn) [Compound 135] | ≥ 5.70 |
| CCOC1CC(c2ccccc2)OC2(CCN(C(=O)c3ccc(OC(C)C)c(Cl)c3)CC2)C1 (stereo not drawn) [Compound 171] | ≥ 5.70 |
| CCOC1CC(c2ccccc2)OC2(CCN(C(=O)c3ccc(COCC(F)(F)F)cc3)CC2)C1 (stereo not drawn) [Compound 46] | ≥ 5.70 |
| CCOC1CC(c2ccccc2)OC2(CCN(C(=O)c3ccc(O[C@@H](C)CC)c(OC)c3)CC2)C1 (stereo partly drawn) [Compound 139] | ≥ 5.70 |
| CCOC1CC(c2ccccc2)OC2(CCN(C(=O)c3cnc4ccccc4c3)CC2)C1 (stereo not drawn) [Compound 95] | < 5.30 |
| CCOC1CC(c2ccccc2)OC2(CCN(C(=O)c3cccnc3NC(C)C)CC2)C1 (stereo not drawn) [Compound 75] | ≥ 5.70 |
| CCOC1CC(c2ccccc2)OC2(CCN(C(=O)c3c[nH]c4ncccc34)CC2)C1 (stereo not drawn) [Compound 89] | ≥ 5.70 |
| CCOC1CC(c2ccccc2)OC2(CCN(C(=O)c3ccc(OC(C)C)c(C#N)c3)CC2)C1 (stereo not drawn) [Compound 127] | ≥ 5.70 |
| CCOC1CC(c2ccccc2)OC2(CCN(C(=O)c3ccc(OC)c(OC(F)F)c3)CC2)C1 (stereo not drawn) [Compound 62] | ≥ 5.70 |
| CCOC1CC(CC)OC2(CCN(C(=O)c3ccc(OC(C)C)c(C)c3)CC2)C1 (stereo not drawn) [Compound 194] | 5.30 to 5.70 |
| CCOC1CC(c2ccccc2)OC2(CCN(C(=O)c3ccc(C4(O)CCC4)cc3)CC2)C1 (stereo not drawn) [Compound 176] | ≥ 5.70 |
| CCOC1CC(c2cccnc2)OC2(CCN(C(=O)c3ccc(C(C)(C)C)c(OC)c3)CC2)C1 (stereo not drawn) [Compound 37] | ≥ 5.70 |
| CCOC1CC(c2ccccc2)OC2(CCN(C(=O)c3cccnc3N3CCCCC3)CC2)C1 (stereo not drawn) [Compound 64] | ≥ 5.70 |
| CCOC1CC(c2ccccc2)OC2(CCN(C(=O)c3ccc(N4CCOCC4)cc3)CC2)C1 (stereo not drawn) [Compound 93] | ≥ 5.70 |
| CCOC1CC(c2cccnc2)OC2(CCN(C(=O)c3ccc(OCCC(C)C)c(OC)c3)CC2)C1 (stereo not drawn) [Compound 39] | ≥ 5.70 |
| CCOC1CC(c2ccccc2)OC2(CCN(C(=O)c3ccc(OC(C)(C)C)c(OC)c3)CC2)C1 (stereo not drawn) [Compound 137] | ≥ 5.70 |
| CCOC1CC(c2cccnc2)OC2(CCN(C(=O)c3ccc(OC(C)C)c(C)n3)CC2)C1 (stereo not drawn) [Compound 38] | 5.30 to 5.70 |
| CCOC1CC(c2ccccc2)OC2(CCN(C(=O)c3cc(C)c(OC(C)C)c(C)c3)CC2)C1 (stereo not drawn) [Compound 29] | ≥ 5.70 |
| CCOC1CC(c2cncs2)OC2(CCN(C(=O)c3ccc(OC(C)C)c(C)c3)CC2)C1 (stereo not drawn) [Compound 18] | ≥ 5.70 |
| CCOC1CC(c2ccccc2)OC2(CCN(C(=O)c3ccc(C)cc3F)CC2)C1 (stereo not drawn) [Compound 97] | ≥ 5.70 |
| CCOC1CC(c2ccccc2)OC2(CCN(C(=O)c3cc(-c4ccc(C)cc4)on3)CC2)C1 (stereo not drawn) [Compound 53] | 5.30 to 5.70 |
| CCOC1CC(c2ccccc2)OC2(CCN(C(=O)c3ccc(C#N)c(C)n3)CC2)C1 (stereo not drawn) [Compound 50] | < 5.30 |
| CCOC1CC(c2ccccc2)OC2(CCN(C(=O)c3ccc(N4CCCC4)nc3)CC2)C1 (stereo not drawn) [Compound 70] | 5.30 to 5.70 |
| CCOC1CC(c2ccccc2)OC2(CCN(C(=O)c3ccc(F)c(F)c3OC)CC2)C1 (stereo not drawn) [Compound 19] | ≥ 5.70 |
